Laboratory results from PubChem BioAssay (NCI).
“And” between values parts separate entries of the source, which are not always exact repeats. Equal values may be shown once.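 These data come from cells grown in 96-well plates and exposed to compound for 48 hours at five concentrations. At the GI50, growth is halved. At the TGI there is no net growth.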

What was measured:
Assay in all cases: growth of human tumour cells (NCI), 48 h
HCC-2998 colon = tested on: HCC-2998 colon
HS 578T breast = tested on: HS 578T breast
MDA-MB-435 = tested on: MDA-MB-435
CAKI-1 renal = tested on: CAKI-1 renal
SNB-75 CNS = tested on: SNB-75 CNS
NCI-H226 lung = tested on: NCI-H226 lung
MALME-3M melanoma = tested on: MALME-3M melanoma
A549 NSCLC = tested on: A549 NSCLC
SK-MEL-5 melanoma = tested on: SK-MEL-5 melanoma
NCI/ADR-RES ovarian = tested on: NCI/ADR-RES ovarian

Row | Compound | TGI (HCC-2998 colon) | TGI (HS 578T breast) [µM] | TGI (MDA-MB-435) [µM] | TGI (CAKI-1 renal) [µM] | TGI (SNB-75 CNS) | TGI (NCI-H226 lung) | TGI (MALME-3M melanoma) | TGI (A549 NSCLC) | TGI (SK-MEL-5 melanoma) | TGI (NCI/ADR-RES ovarian) | GI50 (HCC-2998 colon) [µM] | GI50 (HS 578T breast) [µM] | GI50 (MDA-MB-435) [µM] | GI50 (CAKI-1 renal) [µM] | GI50 (SNB-75 CNS) [µM] | GI50 (NCI-H226 lung) [µM] | GI50 (MALME-3M melanoma) [µM] | GI50 (A549 NSCLC) [µM] | GI50 (SK-MEL-5 melanoma) [µM] | GI50 (NCI/ADR-RES ovarian) [µM]
1 | CN(C)CCNC(=O)c1ccc(Cl)c2cc3ccccc3nc12 | 3.52 µM | 3.07 | 2.22 | 11.6 | 5.84 µM | 4.7 µM | 2.26 µM | 3.08 µM | 2.44 µM | 5.65 µM | – | – | – | – | – | – | – | – | – | –
2 | Cc1cc(N2CCCC2)c([N+](=O)[O-])cc1[N+](=O)[O-] | > 100 µM | > 100 | > 100 | > 100 | > 100 µM | > 100 µM | > 100 µM | > 100 µM | > 100 µM | > 100 µM | – | – | – | – | – | – | – | – | – | –
3 | COc1ccc([C@]23CCN4COC[C@@H]([C@H]42)C2(CC3)OCC(C)(C)CO2)cc1OC | > 100 µM | > 100 | > 100 | > 100 | > 100 µM | > 100 µM | > 100 µM | > 100 µM | > 100 µM | > 100 µM | – | – | – | – | – | – | – | – | – | –
4 | O=C(c1ccc(O)c([N+](=O)[O-])c1)c1ccc(O)c([N+](=O)[O-])c1 | > 100 µM | > 100 | 70.1 | > 100 | 85.7 µM | > 100 µM | 98.6 µM | > 100 µM | > 100 µM | > 100 µM | – | – | – | – | – | – | – | – | – | –
5 | C=Cc1nc(C#N)c(N)o1 | > 100 µM | > 100 | > 100 | > 100 | > 100 µM | > 100 µM | > 100 µM | > 100 µM | > 100 µM | > 100 µM | – | – | – | – | – | – | – | – | – | –
6 | COc1cccc(C2SC(C)C(=O)N2CCc2cccs2)c1 (configuration not stated) | 12.3 µM | 26.8 | 7.28 | 10.5 | 15.7 µM | 17.2 µM | 8.09 µM | 12.7 µM | 2.96 µM | 12.7 µM | 2.93 | 2.56 | 2.16 | 2.07 | 3.2 | 3.15 | 2.19 | 3.39 | 1.58 | 2.6
7 | COc1ccc2c(c1)c1nn(CCN3CCCCC3)c3ccc4c(=O)n(CCN(C)C)c(=O)n2c4c13 | 0.03 µM | 0.412 | 0.088 | 0.375 | 0.0711 µM | 0.243 µM | 0.351 µM | 0.0497 µM | 0.283 µM | 1.91 µM | – | – | – | – | – | – | – | – | – | –
8 | COC(=O)C1=CON2C3CC4CC(C3)CC(C4)C12C (configuration not stated) | > 100 µM | > 100 | > 100 | > 100 | > 100 µM | > 100 µM | > 100 µM | > 100 µM | > 100 µM | > 100 µM | – | – | – | – | – | – | – | – | – | –
9 | CCOC(=O)C(NC(=O)CC)(Nc1ccc(F)c(Cl)c1)C(F)(F)F (configuration not stated) | > 100 µM | > 100 | > 100 | > 100 | > 100 µM | > 100 µM | > 100 µM | > 100 µM | > 100 µM | > 100 µM | – | – | – | – | – | – | – | – | – | –
10 | N#CC[N+]1(Cc2ccccn2)CCCC1 | > 100 µM | > 100 | > 100 | > 100 | > 100 µM | > 100 µM | > 100 µM | > 100 µM | > 100 µM | > 100 µM | – | – | – | – | – | – | – | – | – | –
11 | COC12C=CC(C=C1C#N)CC2 (configuration not stated) (tested in a mixture with another compound) | > 100 µM | > 100 | > 100 | > 100 | > 100 µM | > 100 µM | > 100 µM | > 100 µM | > 100 µM | > 100 µM | – | – | – | – | – | – | – | – | – | –
12 | Cc1cc(N(CCC#N)CCC#N)ccc1/C=C1\SC(=S)NC1=O | > 100 µM | 85 | > 100 | > 100 | 93.6 µM | > 100 µM | > 100 µM | > 100 µM | > 100 µM | > 100 µM | – | – | – | – | – | – | – | – | – | –
13 | COc1cc(OC2OC(COC(=O)c3cc(O)c(O)c(O)c3)C(O)C(O)C2O)ccc1O (configuration not stated) | > 100 µM | > 100 | 63.3 | > 100 | > 100 µM | > 100 µM | > 100 µM | > 100 µM | > 100 µM | > 100 µM | – | – | – | – | – | – | – | – | – | –
14 | CCN(CC)CCOC(=O)Cc1cccc2c(=O)cc(-c3ccccc3)oc12 | 62.5 µM and > 102 µM | 62.5 | 62.5 | – | 50.1 µM and 126 µM | 62.5 µM and > 129 µM | 62.5 µM and 165 µM | 62.5 µM and > 209 µM | 62.5 µM and > 186 µM | 62.5 µM and > 283 µM | 34.1 | – | – | 252 | 13 | 50.7 | 64.7 | 57.4 | 81.5 | 123
15 | CCCCCN(CCCCC)CC(C)(C)C(O)c1ccc(OC)c2ccccc12 (configuration not stated) | 31.4 µM | 39.8 | 29.8 | 28 | 51.9 µM | 33.6 µM | 29.9 µM | 21.1 µM | 12.8 µM | 26.3 µM | – | – | – | – | – | – | – | – | – | –
16 | CC(=O)OCCCCn1cc(Cn2ccc(=O)n(Cc3cn(CCCCOC(C)=O)nn3)c2=O)nn1 | > 100 µM | > 100 | > 100 | > 100 | > 100 µM | > 100 µM | > 100 µM | > 100 µM | > 100 µM | > 100 µM | – | – | – | – | – | – | – | – | – | –
